# Assay results from patent US6589915B1, “Benzohetero cyclylcyclo hexenones and their use as herbicides” (BASF Aktiengesellschaft, priority 1999, dated 2003).
# Tests used:
# Assay type in all cases: in vivo
# IPOSS = experiment: greenhouse post-emergence herbicidal test
# Source text: (§1) The seeds of the test plants were sown separately for each species. For the post-emergence treatment, the test plants were first, grown to a plant height of from 3 to 15 cm, depending on the plant habit, and only then treated with the active ingredients which had been suspended or emulsified in water. To this end, the test plants were either sown directly and grown in the same containers, or they were first grown separately as seedlings and transplanted into the test containers a few days prior to treatment. […] Depending on the species, the plants were kept at from 10 to 25° C., or 20 to 35° C., respectively. The test period extended over 2 to 4 weeks. During this time, the plants were tended, and their response to the individual treatments was evaluated. Evaluation was carried out using a scale of from 0 to 100. 100 means no emergence of the plants, or complete destruction of at least the aerial parts, and 0 means no damage, or normal course of growth. The following experiments were performed by the post-emergence method.
# wheat = experiment: greenhouse post-emergence test, crop selectivity; settings: 0.25 and 0.5 kg/ha (a.s.)
# Source text: as §1, with “growth. [table]” for “growth.”
# POLPE (ladysthumb) = experiment: greenhouse post-emergence herbicidal test
# Source text: as §1, with “growth. [table]” for “growth.”
# [1] = tested on: CHEAL (lambsquarters (goosefoot)); experiment: greenhouse post-emergence herbicidal test
# Source text: as §1, with “growth. [table]” for “growth.”
# AMARE (redroot pigweed) = experiment: greenhouse post-emergence herbicidal test
# Source text: as §1, with “growth. [table]” for “growth.”
# ECHCG (barnyard grass) = experiment: greenhouse post-emergence herbicidal test
# Source text: as §1, with “growth. [table]” for “growth.”
# ABUTH (velvet leaf) = experiment: greenhouse post-emergence herbicidal test
# Source text: as §1, with “growth. [table]” for “growth.”
# SETFA (giant foxtail) = experiment: greenhouse post-emergence herbicidal test
# Source text: as §1, with “growth. [table]” for “growth.”
# PHPBU = experiment: greenhouse post-emergence herbicidal test; settings: 0.125 and 0.25 kg/ha (a.s.)
# Source text: (§2) The seeds of the test plants were sown separately for each species. For the post-emergence treatment, the test plants were first, grown to a plant height of from 3 to 15 cm, depending on the plant habit, and only then treated with the active ingredients which had been suspended or emulsified in water. To this end, the test plants were either sown directly and grown in the same containers, or they were first grown separately as seedlings and transplanted into the test containers a few days prior to treatment. The rat e of application for the post-emergence treatment was 0.25 or 0.125 kg of a.s. (active substance)/ha. Depending on the species, the plants were kept at from 10 to 25° C., or 20 to 35° C., respectively. The test period extended over 2 to 4 weeks. During this time, the plants were tended, and their response to the individual treatments was evaluated. Evaluation was carried out using a scale of from 0 to 100. 100 means no emergence of the plants, or complete destruction of at least the aerial parts, and 0 means no damage, or normal course of growth. [table] The following experiments were performed by the post-emergence method.
# [2] = tested on: GALAP (catchweed bedstraw); experiment: greenhouse post-emergence herbicidal test; settings: 0.125 and 0.25 kg/ha (a.s.)
# Source text: as §2
smiles,measurement,setting,value
Cc1c(C(=O)C2=C(O)CCCC2=O)ccc2scnc12 [Example I-1a.394],herbicidal action against IPOSS,IPOSS; 0.25 and 0.5 kg/ha (a.s.),very good
same,selectivity in wheat,wheat,selectivity
same,herbicidal action against POLPE,POLPE (ladysthumb); 0.25 and 0.5 kg/ha (a.s.),very good
same,herbicidal action against CHEAL,[1]; 0.25 and 0.5 kg/ha (a.s.),very good
same,herbicidal action against AMARE,AMARE (redroot pigweed); 0.25 and 0.5 kg/ha (a.s.),very good
Cc1c(C(=O)C2=C(O)CCCC2=O)ccc2sc(C(C)C)nc12 [Example I-1a.408],herbicidal action against POLPE,POLPE (ladysthumb); 0.125 and 0.25 kg/ha (a.s.),good to very good
same,herbicidal action against CHEAL,[1]; 0.125 and 0.25 kg/ha (a.s.),good to very good
same,herbicidal action against ECHCG,ECHCG (barnyard grass); 0.125 and 0.25 kg/ha (a.s.),good to very good
same,herbicidal action against ABUTH,ABUTH (velvet leaf); 0.125 and 0.25 kg/ha (a.s.),good to very good
Cc1c(C(=O)C2=C(O)CC(C)(C)CC2=O)ccc2sc(Cl)nc12 [Example I-1c.396],herbicidal action against SETFA,SETFA (giant foxtail); 0.25 and 0.5 kg/ha (a.s.),good to very good
same,herbicidal action against CHEAL,[1]; 0.25 and 0.5 kg/ha (a.s.),good to very good
same,herbicidal action against AMARE,AMARE (redroot pigweed); 0.25 and 0.5 kg/ha (a.s.),good to very good
same,herbicidal action against ECHCG,ECHCG (barnyard grass); 0.25 and 0.5 kg/ha (a.s.),good to very good
CCc1nc2c(C)c(C(=O)C3=C(O)C4CCC(C4)C3=O)ccc2s1 (centres unmarked) [Example I-1x.406],herbicidal action against POLPE,POLPE (ladysthumb); 0.125 and 0.25 kg/ha (a.s.),very good
same,herbicidal action against CHEAL,[1]; 0.125 and 0.25 kg/ha (a.s.),very good
same,herbicidal action against ECHCG,ECHCG (barnyard grass); 0.125 and 0.25 kg/ha (a.s.),very good
same,herbicidal action against ABUTH,ABUTH (velvet leaf); 0.125 and 0.25 kg/ha (a.s.),very good
COCc1nc2c(C)c(C(=O)C3=C(O)C4CCC(C4)C3=O)ccc2s1 (centres unmarked) [Example I-1x.420],herbicidal action against PHPBU,PHPBU,very good
same,herbicidal action against POLPE,POLPE (ladysthumb); 0.125 and 0.25 kg/ha (a.s.),very good
same,herbicidal action against SETFA,SETFA (giant foxtail); 0.125 and 0.25 kg/ha (a.s.),very good
same,herbicidal action against CHEAL,[1]; 0.125 and 0.25 kg/ha (a.s.),very good
same,herbicidal action against ECHCG,ECHCG (barnyard grass); 0.125 and 0.25 kg/ha (a.s.),very good
CSc1nc2c(C)c(C(=O)C3=C(O)C4CCC(C4)C3=O)ccc2s1 (centres unmarked) [Example I-1x.435],herbicidal action against CHEAL,[1]; 0.0625 and 0.125 kg/ha (a.s.),very good
same,herbicidal action against AMARE,AMARE (redroot pigweed); 0.0625 and 0.125 kg/ha (a.s.),very good
same,herbicidal action against ECHCG,ECHCG (barnyard grass); 0.0625 and 0.125 kg/ha (a.s.),very good
Cc1c(C(=O)C2=C(O)C3CCC(C3)C2=O)ccc2sc(Oc3ccccc3F)nc12 (centres unmarked) [Example I-1x.790],herbicidal action against POLPE,POLPE (ladysthumb); 0.125 and 0.25 kg/ha (a.s.),very good
same,herbicidal action against SETFA,SETFA (giant foxtail); 0.125 and 0.25 kg/ha (a.s.),very good
same,herbicidal action against CHEAL,[1]; 0.125 and 0.25 kg/ha (a.s.),very good
same,herbicidal action against ECHCG,ECHCG (barnyard grass); 0.125 and 0.25 kg/ha (a.s.),very good
CCc1nc2c(C)c(C(=O)C3=C(O)CCCC3=O)ccc2o1 [Example I-2a.406],herbicidal action against GALAP,[2],good
same,herbicidal action against IPOSS,IPOSS; 0.125 and 0.25 kg/ha (a.s.),very good
same,herbicidal action against CHEAL,[1]; 0.125 and 0.25 kg/ha (a.s.),very good
same,herbicidal action against AMARE,AMARE (redroot pigweed); 0.125 and 0.25 kg/ha (a.s.),very good
same,herbicidal action against ABUTH,ABUTH (velvet leaf); 0.125 and 0.25 kg/ha (a.s.),very good
CCc1nc2c(C)c(C(=O)C3=C(O)C4CCC(C4)C3=O)ccc2o1 (centres unmarked) [Example I-2x.406],herbicidal action against POLPE,POLPE (ladysthumb); 0.0625 and 0.125 kg/ha (a.s.),good to very good
same,herbicidal action against CHEAL,[1]; 0.0625 and 0.125 kg/ha (a.s.),good to very good
same,herbicidal action against ECHCG,ECHCG (barnyard grass); 0.0625 and 0.125 kg/ha (a.s.),good to very good
same,herbicidal action against ABUTH,ABUTH (velvet leaf); 0.0625 and 0.125 kg/ha (a.s.),good to very good
